Biological target: T1, TYK2 kinase domain (Homo sapiens, UniProt P29597)
T1 construct: The activity of the isolated JAK1, JAK2 or TYK2 kinase domain was measured
T1 sequence (P29597 897-1176 limits assumed): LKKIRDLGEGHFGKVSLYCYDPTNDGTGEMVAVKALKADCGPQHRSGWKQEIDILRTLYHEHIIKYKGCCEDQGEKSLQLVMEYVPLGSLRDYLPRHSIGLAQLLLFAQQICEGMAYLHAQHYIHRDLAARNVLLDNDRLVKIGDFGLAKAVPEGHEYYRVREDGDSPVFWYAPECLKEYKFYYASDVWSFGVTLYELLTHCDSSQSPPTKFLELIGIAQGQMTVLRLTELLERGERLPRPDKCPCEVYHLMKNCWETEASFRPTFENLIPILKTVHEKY
Experiment: TYK2 inhibition assay (Example A, Caliper LabChip peptide phosphorylation)
Assay type: biochemical
Settings: isolated kinase domain, 1 nM TYK2, 25 uM ATP, Morrison tight binding model
Description: The activity of the isolated JAK1, JAK2 or TYK2 kinase domain was measured by monitoring phosphorylation of a peptide derived from JAK3 ([…] fluorescently labeled on the N-terminus with 5-carboxyfluorescein using the Caliper LabChip technology (Caliper Life Sciences, Hopkinton, Mass.). […] Reactions were incubated at 22° C. in 384-well polypropylene microtiter plates for 30 minutes and then stopped by addition of 25 uL of an EDTA containing solution (100 mM Hepes pH 7.2, 0.015% Brij-35, 150 mM EDTA), resulting in a final EDTA concentration of 50 mM. After termination of the kinase reaction, the proportion of phosphorylated product was determined as a fraction of total peptide substrate using the Caliper LabChip 3000 according to the manufacturer's specifications. Ki values were then determined using the Morrison tight binding model. Morrison, J. F., Biochim. Biophys. Acta. 185:269-296 (1969); William, J. W. and Morrison, J. F., Meth. Enzymol., 63:437-467 (1979).

| Ki | Compound |
| --- | --- |
| 0.6 nM | Clc1cccc(Cl)c1-c1nc2ccnc(Nc3cc(N4CCOCC4)ncn3)c2[nH]1 [Example 5, 2-(2,6-dichlorophenyl)-N-(6-morpholinopyrimidin-4-yl)-3H-imidazo[4,5-e]pyridin-4-amine] |
| 14.5 nM | Clc1cccc(Cl)c1-c1nc2ccnc(Nc3cn[nH]c3)c2[nH]1 [Example 3, 2-(2,6-dichlorophenyl)-N-(1H-pyrazol-4-yl)-3H-imidazo[4,5-e]-pyridin-4-amine] |
| 7.2 nM | Cc1nc(Nc2ncnc3nc(-c4c(Cl)cccc4Cl)[nH]c23)cc(N2CCN(CCO)CC2)n1 [Example 167, 2-(4-{6-[8-(2,6-Dichloro-phenyl)-7H-purin-6-ylamino]-2-methyl-pyrimidin-4-yl}-piperazin-1-yl)-ethanol] |
| 2.3 nM | Cc1cc(Nc2ncc(F)c3[nH]c(-c4c(Cl)cccc4Cl)nc23)nc(C)n1 [Example 16, 2-(2,6-dichlorophenyl)-N-(2,6-dimethylpyrimidin-4-yl)-7-fluoro-1H-imidazo[4,5-c]pyridin-4-amine] |
| 56 nM | COC(=O)Nc1ncnc2nc(-c3c(F)cccc3Cl)[nH]c12 [Example 208, methyl 8-(2-chloro-6-fluorophenyl)-7H-purin-6-ylcarbamate] |
| 1.7 nM | Clc1cccc(Cl)c1-c1nc2c(Nc3ccccn3)nccc2[nH]1 [Example 1, 2-(2,6-dichlorophenyl)-N-(pyridin-2-yl)-1H-imidazo[4,5-e]pyridin-4-amine] |
| 835 nM | O=C(Nc1ncnc2c1nc(-c1c(Cl)cccc1Cl)n2CCO)C1CC1 [Example 439, Cyclopropanecarboxylic acid [8-(2,6-dichloro-phenyl)-9-(2-hydroxy-ethyl)-9H-purin-6-yl]-amide] |
| 1.4 nM | N#Cc1cc(Cl)c(-c2nc3ncnc(Nc4ccc(N5CCOCC5)cn4)c3[nH]2)c(Cl)c1 [Example 197, 3,5-dichloro-4-(6-(5-morpholinopyridin-2-ylamino)-7H-purin-8-yl)benzonitrile] |
| 56.5 nM | Cn1c(-c2c(Cl)cccc2Cl)nc2c(Nc3ccncc3)ncnc21 [Example 215, 8-(2,6-dichlorophenyl)-9-methyl-N-(pyridin-4-yl)-9H-purin-6-amine] |
| 2.5 nM | N#Cc1cc(Cl)c(-c2nc3ccnc(NC(=O)C4CC4)c3[nH]2)c(Cl)c1 [Example 10, N-(2-(2,6-dichloro-4-cyanophenyl)-3H-imidazo[4,5-c]pyridin-4-yl)cyclopropanecarboxamide] |
| 3.1 nM | Fc1cccc(Cl)c1-c1nc2ccnc(Nc3cnccn3)c2[nH]1 [Example 6, 2-(2-chloro-6-fluorophenyl)-N-(pyrazin-2-yl)-3H-imidazo[4,5-e]-pyridin-4-amine] |
| 8.1 nM | O=C(Nc1ncnc2nc(-c3c(Cl)cccc3Cl)[nH]c12)C1CC1 [Example 15, N-(8-(2,6-dichlorophenyl)-7H-purin-6-yl)cyclopropanecarboxamide] |
| 19.5 nM | Cn1c(-c2c(Cl)cccc2Cl)nc2ccnc(NC(=O)C3CC3)c21 [Example 13, N-(2-(2,6-dichlorophenyl)-3-methyl-3H-imidazo[4,5-c]pyridine-4-yl)cyclopropanecarboxamide] |
| 27.8 nM | O=C(Nc1ncnc2nc(-c3c(F)cccc3Cl)[nH]c12)C1CC1 [Example 210, N-(8-(2-chloro-6-fluorophenyl)-7H-purin-6-yl)cyclopropanecarboxamide] |
| 13.3 nM | Cn1c(-c2c(Cl)cccc2Cl)nc2c(NC(=O)C3CC3)nccc21 [Example 12, N-(2-(2,6-dichlorophenyl)-1-methyl-1H-imidazo[4,5-c]pyridine-4-yl)cyclopropanecarboxamide] |
| 2.8 nM | Clc1cccc(Cl)c1-c1nc2c(Nc3ccncn3)ncnc2[nH]1 [Example 14, 8-(2,6-dichlorophenyl)-N-(pyrimidin-4-yl)-9H-purin-6-amine] |
| 0.8 nM | O=C(Nc1ncc(Cl)c2[nH]c(-c3c(Cl)cccc3Cl)nc12)C1CC1 [Example 447, Cyclopropanecarboxylic acid [7-chloro-2-(2,6-dichloro-phenyl)-1H-imidazo[4,5-c]pyridin-4-yl]-amide] |
| 27.2 nM | CNC(=O)Nc1ncnc2nc(-c3c(Cl)cccc3Cl)[nH]c12 [Example 171, 1-(8-(2,6-dichlorophenyl)-7H-purin-6-yl)-3-methylurea] |
| 4.9 nM | CNC(=O)Nc1nccc2nc(-c3c(Cl)cccc3Cl)[nH]c12 [Example 11, 1-(2-(2,6-dichlorophenyl)-3H-imidazo[4,5-e]pyridin-4-yl)-3-methylurea] |
| 7.8 nM | O=C(Nc1nccc2nc(-c3c(Cl)cccc3Cl)[nH]c12)c1cncs1 [Example 7, N-(2-(2,6-dichlorophenyl)-3H-imidazo[4,5-c]pyridin-4-yl) thiazole-5-carboxamide] |
| 1.5 nM | Cc1ccc(Nc2ncnc3nc(-c4c(Cl)cccc4Cl)[nH]c23)nc1 [Example 179, 8-(2,6-dichlorophenyl)-N-(5-methylpyridin-2-yl)-7H-purin-6-amine] |
